# Test results from EPA's aquatic toxicity sets.
# Test system: Daphnia magna
# Experiment: 48 h LC50 (-log10 mol/L); higher = more toxic
row,SMILES,48 h LC50 (-log10 mol/L)
1,CN1C(=O)CN=C(c2ccccc2)c2cc(Cl)ccc21,4.82
2,CC(C)OC(=O)Nc1cccc(Cl)c1,4.76
3,CCCC(=O)Nc1ccc(OCC(O)CNC(C)C)c(C(C)=O)c1 (centres undefined),3.82
4,N#Cc1c(Cl)c(Cl)c(Cl)c(C#N)c1Cl,6.21
5,CCN(CC)C(=S)SSC(=S)N(CC)CC,5.98
6,Nc1nc(N)c2nc(-c3ccccc3)c(N)nc2n1,4.4
7,CCCN(CCC)C(=O)SCC,4.61
8,CC1(C)[C@H](C(=O)O[C@H](C#N)c2cccc(Oc3ccccc3)c2)[C@@H]1C(Br)C(Br)(Br)Br (some centres undefined),9.95
9,CC(C)(C)NCC(O)COc1cccc2c1C[C@H](O)[C@H](O)C2 (some centres undefined),3.28
10,CCCN(CCC)C(=S)SSC(=S)N(CCC)CCC,6.19
11,CC(C)(Oc1ccc(Cl)cc1)C(=O)O,3.47
12,COc1cc(Cl)c(Cl)c(Cl)c1O,5.37
13,CBr,4.63
14,CC1=CC(=O)C(C)=C(C)C1=O,5
15,ClC1=C(Cl)[C@]2(Cl)[C@@H]3[C@@H](Cl)[C@H]4O[C@H]4[C@@H]3[C@@]1(Cl)C2(Cl)Cl,6.21
16,Cc1cc(C)cc(OCC2CNC(=O)O2)c1 (centres undefined),3.47
17,CN1CCCC1=O,4.91
18,ClCCCCl,2.61
19,CCCCCCCCc1ccc(O)cc1,6.36
20,CCCCCCCCCC,5.3
21,COc1ccc2cc([C@H](C)C(=O)O)ccc2c1,3.79
22,Oc1cc(Cl)ccc1Oc1ccc(Cl)cc1Cl,6.11
23,CCS,5.56

row,SMILES,48 h LC50 (-log10 mol/L)
1,CO/C=C(/C(=O)OC)c1ccccc1Oc1cc(Oc2ccccc2C#N)ncn1,6.39
2,NNC(=O)c1ccncc1,3.77
3,NC(=O)N/N=C/c1ccc([N+](=O)[O-])o1,3.84
4,Cc1c(COC(=O)[C@@H]2[C@H](/C=C(\Cl)C(F)(F)F)C2(C)C)cccc1-c1ccccc1,8.11
5,Nc1cccc(Cl)c1,6.11
6,c1cc2ccc3cccc4ccc(c1)c2c34,6.17
7,CC[C@H]1OC(=O)[C@H](C)[C@@H](O[C@H]2C[C@@](C)(OC)[C@@H](O)[C@H](C)O2)[C@H](C)[C@@H](O[C@@H]2O[C@H](C)C[C@H](N(C)C)[C@H]2O)[C@](C)(O)C[C@@H](C)CN(C)[C@H](C)[C@@H](O)[C@]1(C)O,3.79
8,O=C1CN=C(c2ccccc2Cl)c2cc([N+](=O)[O-])ccc2N1,4.02
9,CCCCOCCOCCOCc1cc2c(cc1CCC)OCO2,5.29
10,c1ccc(NNc2ccccc2)cc1,4.65
11,COc1ccccc1,3.43
12,COc1c(C(C)(C)C)cc([N+](=O)[O-])c(C)c1[N+](=O)[O-],5.64
13,COc1ccc2nc(S(=O)Cc3ncc(C)c(OC)c3C)[nH]c2c1 (centres undefined),3.59
14,CC(C)CCCCCCCCCCN(CCCCCCCCCCC(C)C)CCCCCCCCCCC(C)C,5.96
15,CCCCCCCCCCC[C@@H](C[C@@H]1OC(=O)[C@H]1CCCCCC)OC(=O)[C@H](CC(C)C)NC=O,4.85
16,CC(C)CC[C@@H](O)[C@](C)(O)[C@H]1CC[C@@]2(O)C3=CC(=O)[C@@H]4C[C@@H](O)[C@@H](O)C[C@]4(C)[C@H]3CC[C@]12C,6.42
17,Clc1cc(Cl)c(-c2ccccc2)cc1Cl,5.64
18,CC(C)(C)[C@H](O)[C@H](Cc1ccc(Cl)cc1)n1cncn1,4.01
19,Fc1ccc([C@@]2(Cn3cncn3)O[C@@H]2c2ccccc2Cl)cc1,4.58
20,O=c1cc[nH]c(=S)[nH]1,4.22
21,ClCC(Cl)(Cl)Cl,3.84
22,CN/C(=C\[N+](=O)[O-])NCCSCc1ccc(CN(C)C)o1,2.69
23,N/C(=N\N=C\c1ccc(Cl)cc1)N/N=C/c1ccc(Cl)cc1,6.65

row,SMILES,48 h LC50 (-log10 mol/L)
1,O=[N+]([O-])c1ccc(Cl)cc1,4.31
2,COCC(C)OC(C)=O (centres undefined),2.51
3,CCCCC(CC)COP(=O)(Oc1ccccc1)Oc1ccccc1 (centres undefined),6.38
4,c1ccc2c(c1)Cc1ccccc1O2,3.95
5,COc1cccc(N)c1,5.64
6,Cn1cc(-c2ccccc2)c(=O)c(-c2cccc(C(F)(F)F)c2)c1,4.9
7,O=C(O)/C=C\C(=O)O,2.76
8,S=P(N1CC1)(N1CC1)N1CC1,2.54
9,C1CCCC1,3.81
10,CCC(CC)Nc1c([N+](=O)[O-])cc(C)c(C)c1[N+](=O)[O-],3.73
11,CC1(C)C(C=C(Cl)Cl)C1C(=O)OCc1cccc(Oc2ccccc2)c1 (centres undefined),8.07
12,O=C(NC(=O)c1c(F)cccc1F)Nc1ccc(Cl)cc1,7.8
13,CCOP(=S)(OCC)OP(=S)(OCC)OCC,9.15
14,CCCCN(CC)C(=O)SCCC,4.47
15,CC(C)C1OCC=CCO1,2.27
16,COc1c(Cl)c(Cl)c(Cl)c(Cl)c1Cl,7.01
17,CC(c1ccc(Cl)cc1)c1ccc(Cl)cc1,6.86
18,CC(C)CCCCCCCOP(=O)(Oc1ccccc1)Oc1ccccc1,7.1
19,Cc1ccc(Cl)cc1[N+](=O)[O-],4.27
20,CCN(CC)C(=O)SCc1ccc(Cl)cc1,5.55
21,CCCCC,3.87

# Test system: Pimephales promelas
# Experiment: 96 h LC50 (-log10 mol/L); higher = more toxic
row,SMILES,96 h LC50 (-log10 mol/L)
1,O/N=C/c1ccccc1O,4.63
2,CCCCC(C)=O,2.37
3,CCCCCCCCC(C)=O,4.51
4,CCCCOC(C)=O,3.81
5,CCCCCCCCC#N,4.3
6,N#CCCCCCCC#N,2.41
7,CN1CCNCC1,1.64
8,COc1cc(OC)c(OC)cc1C=O,3.6
9,NC(=O)c1ccccc1N,2.54
10,Nc1ccc(Br)cc1,3.56
11,CCOC(=O)c1ccc(N)cc1,3.67
12,Cc1ccc(N)cc1N,1.94
13,N#CCCl,4.75
14,CCCCOC(=O)/C=C/C(=O)OCCCC,5.52
15,N#Cc1cc(Cl)ccc1N,3.73
16,CCC#N,1.56

# Test system: Tetrahymena pyriformis
# Experiment: 48 h IGC50 (-log10 mol/L); higher = more toxic
row,SMILES,48 h IGC50 (-log10 mol/L)
1,O/N=C/c1ccccc1O,3.25
2,CCCCC(C)=O,1.66
3,CCCCCCCCC(C)=O,3.58
4,CCCCOC(C)=O,2.51
5,CCCCCCCCC#N,3.62
6,N#CCCCCCCC#N,2.23
7,CN1CCNCC1,2.04
8,COc1cc(OC)c(OC)cc1C=O,2.9
9,NC(=O)c1ccccc1N,2.13
10,Nc1ccc(Br)cc1,4.01
11,CCOC(=O)c1ccc(N)cc1,3.7
12,Cc1ccc(N)cc1N,2.34
13,N#CCCl,3.85
14,CCCCOC(=O)/C=C/C(=O)OCCCC,4.49
15,N#Cc1cc(Cl)ccc1N,3.44
16,CCC#N,1.03
